Source: patent US20120046276A1, “Tuberculosis treatment using pleuromutilin derivatives” (priority 2002, published 2012)

Tests used:
Type in all cases: cell-based
[1] = tested on: Mycobacterium tuberculosis strain 7; assay: Agar Dilution Test (MIC), strain 7 (Isoniacid R, Rifampicin S, Streptomycin R); conditions: TABLE A; strain 7; MIC determined after 3, 4 and 5 weeks
[2] = tested on: Mycobacterium tuberculosis strain 6; assay: Agar Dilution Test (MIC), strain 6 (Isoniacid S, Rifampicin S, Streptomycin S); conditions: TABLE A; strain 6; MIC determined after 3, 4 and 5 weeks
[3] = tested on: Mycobacterium tuberculosis strain 1; assay: Agar Dilution Test (MIC), strain 1 (Isoniacid S, Rifampicin S, Streptomycin S); conditions: TABLE A; strain 1; MIC determined after 3, 4 and 5 weeks
[4] = tested on: Mycobacterium tuberculosis strain 13; assay: Agar Dilution Test (MIC), strain 13 (Isoniacid S, Rifampicin S, Streptomycin S); conditions: TABLE A; strain 13; MIC determined after 3, 4 and 5 weeks
[5] = tested on: Mycobacterium tuberculosis strain 11; assay: Agar Dilution Test (MIC), strain 11 (Isoniacid S, Rifampicin S, Streptomycin S); conditions: TABLE A; strain 11; MIC determined after 3, 4 and 5 weeks
[6] = tested on: Mycobacterium tuberculosis strain 10; assay: Agar Dilution Test (MIC), strain 10 (Isoniacid S, Rifampicin S, Streptomycin S); conditions: TABLE A; strain 10; MIC determined after 3, 4 and 5 weeks
[7] = tested on: Mycobacterium tuberculosis strain 14; assay: Agar Dilution Test (MIC), strain 14 (Isoniacid S, Rifampicin S, Streptomycin S); conditions: TABLE A; strain 14; MIC determined after 3, 4 and 5 weeks
[8] = tested on: Mycobacterium tuberculosis strain 9; assay: Agar Dilution Test (MIC), strain 9 (Isoniacid R, Rifampicin S, Streptomycin R); conditions: TABLE A, MIC determined after 3, 4 and 5 weeks
[9] = tested on: Mycobacterium tuberculosis strain 4; assay: Agar Dilution Test (MIC), strain 4 (Isoniacid R, Rifampicin R, Streptomycin R); conditions: TABLE A; strain 4; MIC determined after 3, 4 and 5 weeks
[10] = tested on: Mycobacterium tuberculosis strain 3; assay: Agar Dilution Test (MIC), strain 3 (Isoniacid R, Rifampicin R, Streptomycin S); conditions: TABLE A; strain 3; MIC determined after 3, 4 and 5 weeks
[11] = tested on: Mycobacterium tuberculosis strain 2; assay: Agar Dilution Test (MIC), strain 2 (Isoniacid S, Rifampicin S, Streptomycin S); conditions: TABLE A; strain 2; MIC determined after 3, 4 and 5 weeks
[12] = tested on: Mycobacterium tuberculosis strain 5; assay: Agar Dilution Test (MIC), strain 5 (Isoniacid R, Rifampicin R, Streptomycin S); conditions: TABLE A; strain 5; MIC determined after 3, 4 and 5 weeks
[13] = tested on: Mycobacterium tuberculosis strain 15 (labor strain 137 kV); assay: Agar Dilution Test (MIC), strain 15 = labor strain 137 kV (Isoniacid S, Rifampicin S, Streptomycin S); conditions: TABLE A; strain 15; MIC determined after 3, 4 and 5 weeks
[14] = tested on: Mycobacterium tuberculosis strain 8; assay: Agar Dilution Test (MIC), strain 8 (Isoniacid S, Rifampicin R, Streptomycin S); conditions: TABLE A; strain 8; MIC determined after 3, 4 and 5 weeks
[15] = tested on: Mycobacterium tuberculosis strain 12; assay: Agar Dilution Test (MIC), strain 12 (Isoniacid S, Rifampicin S, Streptomycin S); conditions: TABLE A; strain 12; MIC determined after 3, 4 and 5 weeks

| SMILES | sensible (S) or resistant (R) [1] | sensible (S) or resistant (R) [2] | sensible (S) or resistant (R) [3] | sensible (S) or resistant (R) [4] | sensible (S) or resistant (R) [5] | sensible (S) or resistant (R) [6] | sensible (S) or resistant (R) [7] | sensible (S) or resistant (R) [8] | sensible (S) or resistant (R) [9] | sensible (S) or resistant (R) [10] | sensible (S) or resistant (R) [11] | sensible (S) or resistant (R) [12] | sensible (S) or resistant (R) [13] | sensible (S) or resistant (R) [14] | sensible (S) or resistant (R) [15] |
| --- | --- | --- | --- | --- | --- | --- | --- | --- | --- | --- | --- | --- | --- | --- | --- |
| NNC(=O)c1ccncc1 [Isoniacid] | R (A strain is designated as resistant if its MIC in testing according to the General Test Procedure after 3 to 5 weeks is higher than 20 μg/ml) | S (sensible (S)) | S (sensible (S)) | S (sensible (S)) | S (sensible (S)) | S (sensible (S)) | S (sensible (S)) | R (A strain is designated as resistant if its MIC in testing according to the General Test Procedure after 3 to 5 weeks is higher than 20 μg/ml) | R (A strain is designated as resistant if its MIC in testing according to the General Test Procedure after 3 to 5 weeks is higher than 20 μg/ml) | R (A strain is designated as resistant if its MIC in testing according to the General Test Procedure after 3 to 5 weeks is higher than 20 μg/ml) | S (sensible (S)) | R (A strain is designated as resistant if its MIC in testing according to the General Test Procedure after 3 to 5 weeks is higher than 20 μg/ml) | S (sensible (S)) | S (sensible (S)) | S (sensible (S)) |
| CO[C@H]1/C=C/O[C@@]2(C)Oc3c(C)c(O)c4c(O)c(c(/C=N/N5CCN(C)CC5)c(O)c4c3C2=O)NC(=O)/C(C)=C\C=C\[C@H](C)[C@H](O)[C@@H](C)[C@@H](O)[C@@H](C)[C@H](OC(C)=O)[C@@H]1C [Rifampicin] | S (sensible (S)) | S (sensible (S)) | S (sensible (S)) | S (sensible (S)) | S (sensible (S)) | S (sensible (S)) | S (sensible (S)) | S (sensible (S)) | R (A strain is designated as resistant if its MIC in testing according to the General Test Procedure after 3 to 5 weeks is higher than 20 μg/ml) | R (A strain is designated as resistant if its MIC in testing according to the General Test Procedure after 3 to 5 weeks is higher than 20 μg/ml) | S (sensible (S)) | R (A strain is designated as resistant if its MIC in testing according to the General Test Procedure after 3 to 5 weeks is higher than 20 μg/ml) | S (sensible (S)) | R (A strain is designated as resistant if its MIC in testing according to the General Test Procedure after 3 to 5 weeks is higher than 20 μg/ml) | S (sensible (S)) |
| [H]/N=C(/N)N[C@H]1[C@H](O)[C@@H](O)[C@H](O[C@@H]2O[C@@H](C)[C@](O)(C=O)[C@H]2O[C@@H]2O[C@@H](CO)[C@H](O)[C@@H](O)[C@@H]2NC)[C@@H](N/C(N)=N\[H])[C@@H]1O [Streptomycin] | R (A strain is designated as resistant if its MIC in testing according to the General Test Procedure after 3 to 5 weeks is higher than 20 μg/ml) | S (sensible (S)) | S (sensible (S)) | S (sensible (S)) | S (sensible (S)) | S (sensible (S)) | S (sensible (S)) | R (A strain is designated as resistant if its MIC in testing according to the General Test Procedure after 3 to 5 weeks is higher than 20 μg/ml) | R (A strain is designated as resistant if its MIC in testing according to the General Test Procedure after 3 to 5 weeks is higher than 20 μg/ml) | S (sensible (S)) | S (sensible (S)) | S (sensible (S)) | S (sensible (S)) | S (sensible (S)) | S (sensible (S)) |
